Reference: patent US20110301162A1, “AURORA KINASE MODULATORS AND METHODS OF USE” (AMGEN INC., priority 2008, published 2011)

Key:
[1] = biological target: T1, AuroraA-TPX2 (Homo sapiens, UniProt O14965); assay: AuroraA-TPX2 Homogeneous Time Resolved Fluorescent (HTRF) kinase assay; assay type: biochemical; conditions: average; ATP about 1 μM; read-out: AurA_IC50_IP (uM Avg)
T1 construct: 20 μL of AuroraA-TPX2 KD GST; GST
T1 sequence (O14965 133-383 limits assumed): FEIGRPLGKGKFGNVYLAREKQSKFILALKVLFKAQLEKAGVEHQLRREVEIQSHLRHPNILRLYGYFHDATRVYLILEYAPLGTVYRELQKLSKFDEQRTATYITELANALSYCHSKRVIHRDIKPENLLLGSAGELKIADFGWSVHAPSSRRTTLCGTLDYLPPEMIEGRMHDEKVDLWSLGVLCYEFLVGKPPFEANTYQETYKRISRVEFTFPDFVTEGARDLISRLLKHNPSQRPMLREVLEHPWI
T1 sequence (Q9ULW0 1-43 partner limits assumed): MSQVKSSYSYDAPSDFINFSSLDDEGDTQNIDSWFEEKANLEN
Description: The Aurora-A HTRF assay begins with Aurora-A in the presence of ATP phosphorylating the biotinylated peptide PLK. The reaction incubates for about 120 min. Detection reagents are added to quench the reaction. These agents stop the reaction by diluting out the enzyme and chelating the metals due to the presence of EDTA. After addition, the assay is incubated overnight to allow the detection reagents to equilibrate.
The AuroraA HTRF assay comprises 1 μL of compound in 100% DMSO, 20 μL of ATP and biotinylated PLK, and 20 μL of AuroraA-TPX2 KD GST for a final volume of about 41 μL. The final concentration of PLK is about 1 μM. The final concentration of ATP is about 1 μM (Km(app)=1 μM+/−0.1) and the final concentration of AuroraA is about 5 nM. Buffer conditions are as follows: 60 mM HEPES pH 7.5, 25mM NaCl, 10 mM MgCl, 2 mM DTT, 0.05% BSA.
(§1) The assay is quenched and stopped with 160 μL of detection reagent. Detection reagents are as follows: Buffer made of 50 mM Tris, pH 7.5, 100 mM NaCl, 3 mM EDTA, 0.05% BSA, 0.1% Tween20. Added to this buffer prior to reading is Steptavidin allophycocyanin (SA-APC) at a final conc in the assay of 0.0005 mg/mL, and europilated anti-phosphoPLK Ab (Eu-anti-PLK) at a final conc of 0.02 nM.
(§2) The assay plate is read in either a Discovery or a RubyStar. The eu-anti-PLK is excited at 320 nm and emits at 615 nm to excite the SA-APC which in turn emits at 655 nm. The ratio of SA-APC at 655 nm (excited due to close proximity to the Eu-anti-PLK because of phosphorylation of the peptide) to free Eu-anti-PLK at 615 nm will give substrate phosphorylation.
Many of the Examples described herein were tested and found to be active compounds. Table I includes related biological data, which may be interpreted using the activity gauge below.

[2] = test system: HeLa cells; assay: HeLa cell 24 hr ploidy assay; assay type: cell-based; conditions: Homo sapiens, 24 hrs treatment, DNA ploidy, average, read-out: 24h_4N Ploidy EC50_IP (uM Avg)
Description: The purpose of this assay is to evaluate the ability of selected individual compounds to induce Deoxyribonucleic acid (DNA) content (ploidy) in cells through failed cell division. Cell cycle analysis is a rapid and efficient way to evaluate the status of DNA content (ploidy) of a given cell. HeLa cells (1×10^4 HeLa cells/well) in 100 ul of media (MEM+10% FBS) were plated in 96-well plates (Packard View) and cultured for 24 hrs at 37° C. maintained in a 5% CO2 atmosphere. The following day, cells were treated for 24 hrs with inhibitor compounds (10 pt. Dose ranging from 0.0024-1.25 umol/L). The compounds were serially diluted in DMSO (0.25% final concentration). The cells were fixed (3.7% Formaldehyde and 1% glutaraldehyde) and permeabilized (1×PBS with 1% BSA an d0.2% Triton X-100) in preparation for nuclear staining. The well plates were stained for 45 minutes at RT in the dark using Hoechest 33342 nuclear stain at 0.5 ug.ml (Stock of 10 mg/ml, Invitrogen, Calif., Cat #H3570). The nuclear stain was removed by aspiration and the cells were washed with wash buffer. A Cellomics Array Scan Vti plate reader was used to acquire the DNA ploidy data of the cells using Cell Cycle bioapplication. Numbers for each of “valid cell count/well”, “% of 4N cells” and “% of >4Ncells” were calculated with the assistance of an Activity Base 5.1ca software and dose curves were generated using an XLFit software. With XLFit, final EC50 IP and EC50 transit values, as well as the Max and Min, were calculated for each curve.

[3] = biological target: T2, AuroraB (Homo sapiens, UniProt Q96GD4); assay: AuroraB Homogeneous Time Resolved Fluorescent (HTRF) kinase assay; assay type: biochemical; conditions: average; ATP 23 μM; read-out: AurB_IC50_IP (uM Avg)
T2 construct: 20 μL of AuroraB FL His; His
T2 sequence (Q96GD4 whole entry): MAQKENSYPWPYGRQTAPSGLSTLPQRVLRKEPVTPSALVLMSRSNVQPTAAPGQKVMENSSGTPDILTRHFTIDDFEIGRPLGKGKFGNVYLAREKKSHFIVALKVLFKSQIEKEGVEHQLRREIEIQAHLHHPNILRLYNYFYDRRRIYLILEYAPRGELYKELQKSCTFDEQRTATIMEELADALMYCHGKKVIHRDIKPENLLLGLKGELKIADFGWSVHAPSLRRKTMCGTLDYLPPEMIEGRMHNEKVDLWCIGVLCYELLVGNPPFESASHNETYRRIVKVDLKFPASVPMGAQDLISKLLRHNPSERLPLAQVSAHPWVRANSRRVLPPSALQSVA
Description: The AuroraB HTRF assay begins with AuroraB in the presence of ATP phosphorylating the biotinylated peptide Histone H3. The reaction incubates for about 90 min. the reaction is quentched by addition of detection reagents, which stop the reaction by diluting out the enzyme and chelating the metals due to the presence of EDTA. After addition, the assay is incubated for about 60 min to allow detection reagents to equilibrate.
The AuroraB HTRF assay comprises 1 μL of compound in 100% DMSO, 20 μL of ATP and biotinylated Histone H3, and 20 μL of AuroraB FL His for a final volume of 41 μL. The final concentration of Histone H3 is 0.1 μM. The final concentration of ATP is 23 μM (Km(app)=23 μM+/−2.6) and the final concentration of AuroraB is 400 pM. Buffer conditions are as follows: 50 mM HEPES pH 7.5, 5 mM NaCl, 0.5 mM MgCl, 0.5 mM MnCl, 2 mM DTT, 0.05% BSA.
as §1, with “0.001” for “0.0005”, “anti-phosphoHistoneH3” for “anti-phosphoPLK”, “(Eu-anti-HisH3)” for “(Eu-anti-PLK)”, “0.064” for “0.02”
as §2, with “eu-anti-HisH3” for “eu-anti-PLK”, “Eu-anti-HisH3” for “Eu-anti-PLK”
Many of the Examples described herein were tested, and fund to be active compounds. Table I includes related biological data, which may be interpreted using the activity gauge below.

| Compound | IC50 [1] | EC50 [2] | IC50 [3] |
| --- | --- | --- | --- |
| O=C(Nc1cc(Oc2ccc(Nc3nnc(-c4ccccc4)c4ccccc34)cc2F)ccn1)N1CCOCC1 [Example 44, N-(4-((2-fluoro-4-((4-phenyl-1-phthalazinyl)amino)phenyl)oxy)-2-pyridinyl)-4-morpholinecarboxamide] | 0.1 to 0.5 µM | 0.1 to 0.5 µM | < 0.1 µM |
| Clc1ccc(-c2nnc(Nc3ccc(Oc4ccnc(/C=C/c5ccccc5)n4)cc3)c3ccccc23)cc1 [Example 30, 4-(4-chlorophenyl)-N-(4-((2-((E)-2-phenylethenyl)-4-pyrimidinyl)oxy)phenyl)-1-phthalazinamine] | 0.1 to 0.5 µM | 0.1 to 0.5 µM | < 0.1 µM |
| CNc1cc(Sc2ccc(Nc3nnc(-c4ccc(Cl)cc4)c4ccccc34)cc2)ccn1 [Example 28, 4-(4-chlorophenyl)-N-(4-((2-(methylamino)-4-pyridinyl)thio)phenyl)-1-phthalazinamine] | 0.1 to 0.5 µM | 0.1 to 0.5 µM | < 0.1 µM |
